Source: patent US12122756B2, “Biflavone compound against I-type herpes simplex virus, and preparation method therefor and use thereof” (priority 2022, dated 2024)
Marks after values point to notes of the source that are not given here.

Columns and labels:
HSV-I [1] = assay: Action mode: inhibitory effect on HSV-I adsorption (CPE, CCK-8); format: cell-based, Herpes simplex virus type I
Procedure: (1) The inhibitory effect of drugs on HSV-I adsorption: Vero cells were seeded in a 96-well plate and grew into a monolayer, before pretreatment with different concentrations of samples. Then, HSV-I virus solution was added at 100 μl/well, followed by incubation for 1 hour. Finally, the cell maintenance solution was replaced, and the cells were further cultured. After 72 hours, the effect on the adsorption of virus was determined using the CCK-8 method.

Vero cells = assay: Cytotoxic assay of tested drugs against Vero cells (CCK-8); format: cell-based, African green monkey
Procedure: 3. Cytotoxic assay of tested drugs against Vero cells: Vero cells were seed in a 96 well plate at 3×10^4 cells/well. The next day, after growing into a monolayer, the test drug was diluted to obtain 8-9 concentrations and added to each well. Meanwhile, a normal control group was established, with 4 replicate wells for each group. After 72 hours, the toxicity of the test drug to Vero cells was measured using CCK-8 assay, and the highest non-toxic concentration and half toxic concentration (TC50) of the drug on the cells were calculated.

HSV-I [2] = assay: Cytopathic effect (CPE) assay: inhibition of pathological changes of Vero cells induced by HSV-I (CCK-8); format: cell-based, Herpes simplex virus type I
Procedure: (1) Determination of the inhibitory activities of the test drugs on pathological changes of Vero cells induced by HSV-I using the cytopathic effect (CPE) assay: Vero cells were seeded in a 96-well plate and grew into a monolayer the next day. 100TCID50 HSV-I was added to infect cells, and then the cell maintenance solution containing different concentrations of the test drug was replaced, and a cell control group was included. The cells were cultured in an incubator for 72 hours. Then, the inhibitory effect of the drug on virus-induced cytopathic changes was measured using the CCK-8 assay, and thus the 50% inhibiting concentration (IC50) of the drug was calculated.

HSV-I [3] = assay: Action mode: direct inactivation effect on HSV-I (CPE, CCK-8); format: cell-based, Herpes simplex virus type I
Procedure: (3) The direct inactivation effect of drugs on HSV-I: Vero cells were seeded in a 96-well plate and grew into a monolayer. Different concentrations of samples were respectively mixed with the virus solution, followed by placing at 37° C. for 1 hour. Then, the solution was added the cells, and incubated for 1 hour. Then, the cell maintenance solution was replaced, and the cells were further cultured. After 72 hours, the direct inactivation effects of drugs on HSV-I was determined using the CCK-8 method. Moreover, a virus control group was set up.

HSV-I viral keratitis = HSV-I viral keratitis model in mice, eye drops; format: in vivo
Description: 8-week-old C57 mice (25 mice, weighing 22 g-25 g) were used to establish HSV-I viral keratitis models in their right eyes. During the modeling process, ster[…] needles were used to make #-shaped/*-shaped/parallel scratches on the cornea of all animals' right eyes. The depth of the scratches must be in the superficial layer, and could not penetrate the stroma. The depth of the scratches for each eye was moderately uniform, and the scratches were evenly distributed, and then a fiber syringe was used to drop 4 μl of HSV-I virus solution mixed well (titer: 2.0×10^6 PFU/ml), to finish modeling. After 1 day of modeling, the right eye of the animal was scored for HSV-I viral keratitis, and 20 mice with successful and uniform modeling were selected for inclusion in the experiment, which were randomly divided into two groups: a modeling group (Ctrl) and a di-XYW compound group, with 10 mice in one group. The surface of the right eye of the animal was treated with a corresponding solvent (Ctrl group, with physiological saline as the solvent) or a di-XYW compound at a concentration of 500 μg/ml (using physiological saline as the solvent), by administering every other day. On the day of administration, each eye should be administrated 5 times, 10 μl for each time, for 2 weeks. The pathological change of keratitis was scored before eye drops (Day 0) and on days 1, 3, 7, and 14 after eye drops (that was summarized as clinical scores, with scoring criteria shown in Table 7), followed by analysis and comparison. [table]

HSV-I [4] = assay: Plaque-reduction method: plaque formation in Vero cells induced by HSV-I; format: cell-based, Herpes simplex virus type I
Procedure: (2) Measurement of the inhibitory effect of drugs on the formation of plaque in Vero cells induced by HSV-I using plaque-reduction method: Vero cells were seeded into a 24-well plate and grew into a monolayer the next day. Then, the 100 PFU/0.2 ml virus solution was added to infect the cells, and a cell control group was included. After incubation with the virus, the agarose cover solution for maintenance of cells, containing different concentrations of the test drug, was replaced, followed by cultivation for additional 72 hours. The cell culture was fixed with 4% paraformaldehyde, stained with 1% crystal violet solution, washed, and dried. The plaque was counted to calculate plaque-forming inhibition ratio of the drug. [formula] 5. Study on the Action Mode of the Test Drug

COc1c(O)c(Cc2c(O)c(OC)c(O)c3c(=O)c(-c4ccc(O)c(S(=O)(=O)[O-])c4)coc23)c2occ(-c3ccc(O)c(S(=O)(=O)[O-])c3)c(=O)c2c1O.[Na+].[Na+] [Compound 2, 8,8″-methylene-di-(sodiumtectorigenin-5′-sulphonate)]
Effect on viral adsorption: OD value (HSV-I [1]; 5.97 μg/ml, n = 6): 0.24 ± 0.03 | Effect on viral adsorption: OD value (HSV-I [1]; 11.94 μg/ml, n = 6): 0.23 ± 0.05 | Effect on viral adsorption: OD value (HSV-I [1]; 23.88 μg/ml, n = 6): 0.24 ± 0.04 | Effect on viral adsorption: OD value (HSV-I [1]; 47.45 μg/ml, n = 6): 0.25 ± 0.04 | Effect on viral adsorption: OD value (HSV-I [1]; 95.50 μg/ml, n = 6): 0.26 ± 0.06 | Effect on viral adsorption: OD value (HSV-I [1]; 191.00 μg/ml, n = 6): 0.25 ± 0.06 | Effect on viral adsorption: OD value (HSV-I [1]; 382.00 μg/ml, n = 6): 0.24 ± 0.06 | inhibitory effect on viral adsorption (in words) (HSV-I [1]; CPE method): almost no inhibitory effect | inhibition at 5.97 µg/mL (HSV-I [1]; Human alphaherpesvirus 1, 5.97 μg/ml, n = 6, read-out: Effect on viral adsorption: Inhibition rate (%)): 4.97% | inhibition at 11.94 µg/mL (HSV-I [1]; Human alphaherpesvirus 1, 11.94 μg/ml, n = 6, read-out: Effect on viral adsorption: Inhibition rate (%)): 4.83% | inhibition at 23.88 µg/mL (HSV-I [1]; Human alphaherpesvirus 1, 23.88 μg/ml, n = 6, read-out: Effect on viral adsorption: Inhibition rate (%)): 5.22% | inhibition at 47.45 µg/mL (HSV-I [1]; Human alphaherpesvirus 1, 47.45 μg/ml, n = 6, read-out: Effect on viral adsorption: Inhibition rate (%)): 6.97% | inhibition at 95.5 µg/mL (HSV-I [1]; Human alphaherpesvirus 1, 95.50 μg/ml, n = 6, read-out: Effect on viral adsorption: Inhibition rate (%)): 7.33% | inhibition at 191 µg/mL (HSV-I [1]; Human alphaherpesvirus 1, 191.00 μg/ml, n = 6, read-out: Effect on viral adsorption: Inhibition rate (%)): 6.16% | inhibition at 382 µg/mL (HSV-I [1]; Human alphaherpesvirus 1, 382.00 μg/ml, n = 6, read-out: Effect on viral adsorption: Inhibition rate (%)): 5.39% | growth inhibition rate (%) on Vero cells (Vero cells; 1st (highest) concentration (971, 1600, 2620, 390 μg·ml^−1 for Compounds 1-4), 72 h): 41.92** % | growth inhibition rate (%) on Vero cells (Vero cells; 2nd concentration, 50% serial dilution from column-head concentration, 72 h): 29.02** % | growth inhibition rate (%) on Vero cells (Vero cells; 3rd concentration, 50% serial dilution from column-head concentration, 72 h): 11.69** % | growth inhibition rate (%) on Vero cells (Vero cells; 4th concentration, 50% serial dilution from column-head concentration, 72 h): −4.55% | growth inhibition rate (%) on Vero cells (Vero cells; 5th concentration, 50% serial dilution from column-head concentration, 72 h): 5.46% | growth inhibition rate (%) on Vero cells (Vero cells; 6th concentration, 50% serial dilution from column-head concentration, 72 h): −4.74% | growth inhibition rate (%) on Vero cells (Vero cells; 7th concentration, 50% serial dilution from column-head concentration, 72 h): −12.11% | growth inhibition rate (%) on Vero cells (Vero cells; 8th concentration, 50% serial dilution from column-head concentration, 72 h): −8.20% | growth inhibition rate (%) on Vero cells (Vero cells; 9th concentration, 50% serial dilution from column-head concentration, 72 h): −13.88% | TC50 on Vero cells (Vero cells; 72 h, CCK-8, Probit regression): 1749.982 µg/mL | toxicity (in words) (Vero cells; Vero cells): lower toxicity | TC50 (Vero cells; Vero cells (Table 5)): 1749.982 µg/mL | highest non-toxic concentration (Vero cells; Vero cells, 72 h, CCK-8): 382.804 µg/mL | Average optical density (OD) (HSV-I [2]; 5.97 μg/ml, n = 6): 0.33 ± 0.04 | Average optical density (OD) (HSV-I [2]; 11.94 μg/ml, n = 6): 0.35 ± 0.05 | Average optical density (OD) (HSV-I [2]; 23.88 μg/ml, n = 6): 0.44 ± 0.07 | Average optical density (OD) (HSV-I [2]; 47.75 μg/ml, n = 6): 0.65 ± 0.06 | Average optical density (OD) (HSV-I [2]; 95.50 μg/ml, n = 6): 0.95 ± 0.04 | Average optical density (OD) (HSV-I [2]; 191.00 μg/ml, n = 6): 1.06 ± 0.05 | Average optical density (OD) (HSV-I [2]; 382.00 μg/ml, n = 6): 1.10 ± 0.03 | inhibitory effect on HSV-I induced cytopathic changes (in words) (HSV-I [2]; CPE method): significant inhibitory effect | inhibition at 5.97 µg/mL (HSV-I [2]; Human alphaherpesvirus 1, Vero, 5.97 μg/ml, n = 6, read-out: Inhibition rate (%)): -0.36% | inhibition at 11.94 µg/mL (HSV-I [2]; Human alphaherpesvirus 1, Vero, 11.94 μg/ml, n = 6, read-out: Inhibition rate (%)): 2.87% | inhibition at 23.88 µg/mL (HSV-I [2]; Human alphaherpesvirus 1, Vero, 23.88 μg/ml, n = 6, read-out: Inhibition rate (%)): 14.5% | inhibition at 47.75 µg/mL (HSV-I [2]; Human alphaherpesvirus 1, Vero, 47.75 μg/ml, n = 6, read-out: Inhibition rate (%)): 40.7% | inhibition at 95.5 µg/mL (HSV-I [2]; Human alphaherpesvirus 1, Vero, 95.50 μg/ml, n = 6, read-out: Inhibition rate (%)): 79.9% | inhibition at 191 µg/mL (HSV-I [2]; Human alphaherpesvirus 1, Vero, 191.00 μg/ml, n = 6, read-out: Inhibition rate (%)): 94% | inhibition at 382 µg/mL (HSV-I [2]; Human alphaherpesvirus 1, Vero, 382.00 μg/ml, n = 6, read-out: Inhibition rate (%)): 99.2% | IC50 (HSV-I [2]; Human alphaherpesvirus 1, against HSV-I in Vero cells, Probit regression): 54.5 µg/mL | SI (selection index = TC50/IC50) (HSV-I [2]; TC50 on Vero cells / IC50 against HSV-I): 32.117 | Direct inactivation: OD value (HSV-I [3]; 5.97 μg/ml, n = 6): 0.33 ± 0.04 | Direct inactivation: OD value (HSV-I [3]; 11.94 μg/ml, n = 6): 0.39 ± 0.05 | Direct inactivation: OD value (HSV-I [3]; 23.88 μg/ml, n = 6): 0.48 ± 0.06 | Direct inactivation: OD value (HSV-I [3]; 47.45 μg/ml, n = 6): 0.55 ± 0.08 | Direct inactivation: OD value (HSV-I [3]; 95.50 μg/ml, n = 6): 0.65 ± 0.08 | Direct inactivation: OD value (HSV-I [3]; 191.00 μg/ml, n = 6): 0.90 ± 0.09 | Direct inactivation: OD value (HSV-I [3]; 382.00 μg/ml, n = 6): 1.08 ± 0.06 | direct inactivation of the virus (in words) (HSV-I [3]; CPE method): significant effect | inhibition at 5.97 µg/mL (HSV-I [3]; Human alphaherpesvirus 1, 5.97 μg/ml, n = 6, read-out: Direct inactivation: Inhibition rate (%)): 3.91% | inhibition at 11.94 µg/mL (HSV-I [3]; Human alphaherpesvirus 1, 11.94 μg/ml, n = 6, read-out: Direct inactivation: Inhibition rate (%)): 10.8% | inhibition at 23.88 µg/mL (HSV-I [3]; Human alphaherpesvirus 1, 23.88 μg/ml, n = 6, read-out: Direct inactivation: Inhibition rate (%)): 22.4% | inhibition at 47.45 µg/mL (HSV-I [3]; Human alphaherpesvirus 1, 47.45 μg/ml, n = 6, read-out: Direct inactivation: Inhibition rate (%)): 31.2% | inhibition at 95.5 µg/mL (HSV-I [3]; Human alphaherpesvirus 1, 95.50 μg/ml, n = 6, read-out: Direct inactivation: Inhibition rate (%)): 44.2% | inhibition at 191 µg/mL (HSV-I [3]; Human alphaherpesvirus 1, 191.00 μg/ml, n = 6, read-out: Direct inactivation: Inhibition rate (%)): 76% | inhibition at 382 µg/mL (HSV-I [3]; Human alphaherpesvirus 1, 382.00 μg/ml, n = 6, read-out: Direct inactivation: Inhibition rate (%)): 98.7% | keratitis pathological changes and clinical score changes compared to model control group (Ctrl) (HSV-I viral keratitis; C57 mice, after 1 and 2 weeks of eye drops at 500 μg/ml, *P<0.05): statistically significant differences | therapeutic effect on HSV-I viral keratitis (in words) (HSV-I viral keratitis; C57 mice, eye drops 500 μg/ml, every other day, 5 x 10 μl per day, 2 weeks): good therapeutic effect | inhibition of pathological changes of HSV-I viral keratitis (in words) (HSV-I viral keratitis; mice, eye drops): effectively inhibit | inhibitory effect on plaque formation induced by HSV-I (in words) (HSV-I [4]): significant inhibitory effect
